Laboratory results as given in patent publication US20240116933A1, “INDAZOLE AND PYRAZOLOPYRIDINE COMPOUNDS AS INHIBITORS OF NLRP3 INFLAMMASOME” (BioAge Labs, Inc., priority 2022, published 2024).

Target: T1, NLRP3 inflammasome (Homo sapiens, UniProt Q96P20)
T1 construct: endogenous in cells; host or cells: THP-1 cells (PMA-differentiated, LPS-primed, nigericin-stimulated)
Test: THP-1 Cell-Based NLRP3 Activation Assay
Settings: THP-1 cells, PMA, 100 ng/mL LPS 3 hrs, 30 min pre-incubation with test compound, 10 μM nigericin 1 hr
Protocol: THP-1 cells are cultured in complete media (CM) until they reach logarithmic growth and achieve a viability >90%. CM is composed of RPMI-1640 (+Glutamax)/10% fetal bovine serum/55 μM β-mercaptoethanol/pen/strep. Cells are spun down and resuspended to 1,000,000 cells/mL in CM containing either 20 nM or 500 nM PMA. 150,000 cells […] are then added to each well of a 96-well TC plate and incubated for either 24 hr or 3 hr, respectively, in a standard cell culture incubator (37° C.; 5% CO2). After this incubation, the plate is tilted and media carefully removed. 200 μL of CM containing 100 ng/mL LPS is then added to the wells and the cells incubated an additional 3 hrs. The media is again removed and replaced with Opti-Mem medium containing pre-determined dilutions of test compounds in replicate wells. After a 30 min pre-incubation with test compound, 10 μM nigericin (final concentration) in Opti-Mem medium with the corresponding concentration of compound is added to the wells for an additional 1 hr. Positive control wells contain 10 μM nigericin in Opti-Mem in the absence of test compound, while negative control wells contain Opti-Mem only. […] Once supernatants are removed, the relative viability of adherent cells in the 96-well TC plate are determined using a CellTiter-Glo® luminescent cell viability assay (Promega).

T1 sequence (Q96P20 whole entry): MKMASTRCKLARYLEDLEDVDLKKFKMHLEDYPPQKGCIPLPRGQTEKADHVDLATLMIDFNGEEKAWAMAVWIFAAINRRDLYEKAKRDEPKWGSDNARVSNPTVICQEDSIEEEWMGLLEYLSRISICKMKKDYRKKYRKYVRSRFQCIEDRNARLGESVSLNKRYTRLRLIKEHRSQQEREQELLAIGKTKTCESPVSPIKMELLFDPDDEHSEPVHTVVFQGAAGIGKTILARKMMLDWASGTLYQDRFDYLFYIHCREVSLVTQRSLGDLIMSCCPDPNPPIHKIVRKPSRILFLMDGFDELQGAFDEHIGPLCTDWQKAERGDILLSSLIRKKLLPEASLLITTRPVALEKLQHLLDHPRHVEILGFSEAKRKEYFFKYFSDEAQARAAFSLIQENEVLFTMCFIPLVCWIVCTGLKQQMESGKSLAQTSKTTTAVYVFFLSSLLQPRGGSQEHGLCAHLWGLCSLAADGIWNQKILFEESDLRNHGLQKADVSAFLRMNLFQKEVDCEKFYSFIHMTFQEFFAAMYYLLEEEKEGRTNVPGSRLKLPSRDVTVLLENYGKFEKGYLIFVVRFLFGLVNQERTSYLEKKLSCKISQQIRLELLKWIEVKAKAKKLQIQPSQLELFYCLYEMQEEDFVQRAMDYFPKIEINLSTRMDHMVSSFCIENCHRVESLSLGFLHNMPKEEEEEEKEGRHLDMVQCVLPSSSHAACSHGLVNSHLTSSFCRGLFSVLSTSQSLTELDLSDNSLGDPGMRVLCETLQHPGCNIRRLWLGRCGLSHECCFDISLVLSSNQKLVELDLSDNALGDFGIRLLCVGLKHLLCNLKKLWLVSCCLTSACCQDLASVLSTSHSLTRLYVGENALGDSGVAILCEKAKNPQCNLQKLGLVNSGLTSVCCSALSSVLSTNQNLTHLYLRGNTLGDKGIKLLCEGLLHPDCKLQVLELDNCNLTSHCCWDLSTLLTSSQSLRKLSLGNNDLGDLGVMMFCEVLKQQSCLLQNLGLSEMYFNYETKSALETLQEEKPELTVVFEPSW

Compound	IC50 [nM]
CN(Cc1cnc(CO)c2cn[nH]c12)C(=O)c1ccc(-c2cccc(F)c2)c(OC2COC2)c1 [Compound 151]	< 10000
CN(Cc1cnc(CO)c2cn[nH]c12)C(=O)c1ccc(-c2cccs2)c(OC2CC2)c1 [Compound 085]	< 10000
CCOc1nc(C(=O)N(C)Cc2cnc(CF)c3cn[nH]c23)ccc1-c1cccc(C(F)(F)F)c1 [Compound 046]	< 1000
CCOc1cc(C(=O)N(C)C(C)c2cnc(CF)c3cn[nH]c23)ccc1-c1cccc(F)c1 (stereo not shown) [Compound 055]	< 1000
CCOc1cc(C(=O)N(C)C(C)c2ccc(F)c3cn[nH]c23)ccc1-c1cccc(F)c1 (stereo not shown) [Compound 116]	< 1000
CCOc1cc(C(=O)N(C)Cc2c(C)nc(CF)c3cn[nH]c23)ccc1-c1cccc(F)c1 [Compound 173]	< 1000
CCOc1cc(C(=O)N(C)Cc2cnc(C(C)O)c3cn[nH]c23)cc(F)c1-c1cc(F)cs1 (stereo not shown) [Compound 081]	< 1000
CN(Cc1cnc(CO)c2cn[nH]c12)C(=O)c1ccc(-c2cccc(Cl)c2)c(OC2CCC2)c1 [Compound 084]	< 1000
CN(Cc1cnc(CO)c2cn[nH]c12)C(=O)c1ccc(-c2cc(F)cc(F)c2)c(OC2COC2)c1 [Compound 155]	< 1000
CCOc1cc(C(=O)N(C)Cc2cnc(CF)c3cn[nH]c23)ccc1C#CC1CC1 [Compound 001]	< 1000
Cc1ncc(CN(C)C(=O)c2cc(F)c(-c3cccc(Cl)c3)c(OC3CC3)c2)c2[nH]ncc12 [Compound 048]	< 1000
CN(Cc1cnc(CO)c2cn[nH]c12)C(=O)c1ccc(-c2cccc(F)c2)c(OC2CCC2)c1 [Compound 137]	< 1000
CCN(Cc1cnc(CO)c2cn[nH]c12)C(=O)c1ccc(-c2cccc(F)c2)c(OC2CC2)c1 [Compound 100]	< 1000
CCOc1cc(C(=O)N(C)Cc2cnc(C(C)O)c3cn[nH]c23)ccc1-c1ccccc1 (stereo not shown) [Compound 031]	< 1000
CCOc1nc(C(=O)N(C)[C@@H](C)c2cnc(C)c3cn[nH]c23)ccc1-c1cccc(F)c1 [Compound 123]	< 1000
CC(C)Oc1cc(C(=O)N(C)Cc2cnc(C(C)O)c3cn[nH]c23)ccc1-c1cc(F)cc(F)c1 (stereo not shown) [Compound 146]	< 1000
CCOc1cc(C(=O)N(C)Cc2cc(OC(C)=O)cc3cn[nH]c23)ccc1-c1cccc(F)c1 [Compound 007]	< 1000
CC(C)Oc1cc(C(=O)N(C)Cc2cnc(CO)c3cn[nH]c23)ccc1-c1cc(F)cc(F)c1 [Compound 142]	< 1000
Cc1ncc2cn[nH]c2c1CN(C)C(=O)c1cc(F)c(-c2cccc(Cl)c2)c(OC2CC2)c1 [Compound 068]	< 1000

Compound	IC50 [nM]
CCOc1cc(C(=O)N(C)Cc2c(COC)ncc3cn[nH]c23)ccc1-c1cccc(F)c1 [Compound 077]	< 1000
Cc1ncc(CN(C)C(=O)c2cc(F)c(-c3ccccc3)c(OC3CC3)c2)c2[nH]ncc12 [Compound 064]	< 1000
CCCOc1cc(C(=O)N(C)Cc2cnc(CO)c3cn[nH]c23)cc(F)c1-c1cc(F)cc(F)c1 [Compound 136]	< 1000
CCOc1cc(C(=O)N(C)Cc2c(C)c(OC)cc3cn[nH]c23)ccc1-c1cccc(F)c1 [Compound 167]	< 1000
CCOc1cc(C(=O)N(C)Cc2cnc(C(C)F)c3cn[nH]c23)ccc1-c1cccc(F)c1 (stereo not shown) [Compound 070]	< 1000
CCOc1nc(C(=O)N(C)[C@H](C)c2cnc(C)c3cn[nH]c23)ccc1-c1cccc(F)c1 [Compound 124]	< 50000
CCOc1cc(C(=O)N(C)Cc2cnc(CO)c3cn[nH]c23)cc(Cl)c1-c1cccc(F)c1 [Compound 175]	< 10000
Cc1ncc(CNC(=O)c2cc(F)c(-c3cccc(Cl)c3)c(OC3CC3)c2)c2[nH]ncc12 [Compound 122]	< 1000
CC(O)c1ncc(CN(C)C(=O)c2ccc(-c3cccc(C#N)c3)c(OC3CC3)c2)c2[nH]ncc12 (stereo not shown) [Compound 080]	< 50000
CCN(Cc1cnc(CO)c2cn[nH]c12)C(=O)c1cc(F)c(-c2cccc(Cl)c2)c(OC2CC2)c1 [Compound 092]	< 1000
CCOc1cc(C(=O)N(C)Cc2cccc3cn[nH]c23)sc1-c1cccc(F)c1 [Compound 121]	< 1000
CCOc1cc(C(=O)N(C)C(CC)c2cncc3cn[nH]c23)ccc1-c1cccc(F)c1 (stereo not shown) [Compound 117]	< 1000
Cc1ncc(CN(C)C(=O)c2cc(F)c(-c3cccc(C#N)c3)c(OC3CC3)c2)c2[nH]ncc12 [Compound 065]	< 1000
CN(Cc1cnc(CF)c2cn[nH]c12)C(=O)c1cc(F)c(-c2cc(F)cs2)c(OC2CC2)c1 [Compound 181]	< 1000
CCN(Cc1cnc(CO)c2cn[nH]c12)C(=O)c1ccc(-c2cccc(Cl)c2)c(OC2CC2)c1 [Compound 182]	< 1000
CCOc1cc(C(=O)N(CC)Cc2cnc(CO)c3cn[nH]c23)ccc1-c1cccc(C#N)c1 [Compound 103]	< 10000
CN(Cc1cnc(CF)c2cn[nH]c12)C(=O)c1cc(F)c(-c2cccs2)c(OC2CC2)c1 [Compound 105]	< 1000
CCOc1cc(C(=O)N(C)Cc2c(C)nc(C(C)O)c3cn[nH]c23)ccc1-c1cccc(F)c1 (stereo not shown) [Compound 079]	< 1000
